The values that follow come from patent US11464770B2, “Anticancer pharmaceutical composition” (NATIONAL CANCER CENTER, priority 2016, dated 2022).

Where two headings read alike, the source gives them in different places. A value given as a limit tells only on which side of the number the result lay.

What is called IC50 is the concentration that inhibits the measured activity by half.

This assay deals with colorectal cancer cell lines (e.g. DLD-1, HCT 116, SW620, HCT-15, HCT-8, RKO). As to the kind of experiment: Cell based assay, cell viability (CellTiter-Glo), colorectal cancer cell lines. The procedure, abridged:
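Following a 24 h pre-culture in plates, cells receive test compound (final 0 to 2 μM) for 72 hours. Luminescent quantitation of cellular ATP gives viability.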
Background: Cellular ATP, detected with luciferase, serves as a proxy for viable cell number.

Where [1] appears, read: Homo sapiens, DLD-1, 72 hours treatment, read-out: IC50, colorectal cancer cell line DLD-1.
Setting [2] is: Homo sapiens, HCT 116, 72 hours treatment, read-out: IC50, colorectal cancer cell line HCT 116.
Where [3] appears, read: Homo sapiens, HCT-8, 72 hours treatment, read-out: IC50, colorectal cancer cell line HCT-8.
Setting [4] is: Homo sapiens, HCT-15, 72 hours treatment, read-out: IC50, colorectal cancer cell line HCT-15.
The mark [5] stands for this setting: Homo sapiens, HT-29, 72 hours treatment, read-out: IC50, colorectal cancer cell line HT-29.
Setting [6] is: Homo sapiens, LoVo, 72 hours treatment, read-out: IC50, colorectal cancer cell line LoVo.
The mark [7] stands for this setting: Homo sapiens, SW480, 72 hours treatment, read-out: IC50, colorectal cancer cell line SW480.
[8] abbreviates: Homo sapiens, SW-620, SW620, 72 hours treatment, read-out: IC50, colorectal cancer cell line SW620.
[9] abbreviates: RKO, 72 hours treatment, read-out: IC50, colorectal cancer cell line RKO.
The mark [10] stands for this setting: Homo sapiens, DLD-1 cells, 72 hours treatment, read-out: IC50, colorectal cancer cell line DLD-1.
[11] abbreviates: Homo sapiens, HCT 116 cells, 72 hours treatment, read-out: IC50, colorectal cancer cell line HCT 116.
Where [12] appears, read: Homo sapiens, HCT-8 cells, 72 hours treatment, read-out: IC50, colorectal cancer cell line HCT-8.
[13] abbreviates: Homo sapiens, HCT-15 cells, 72 hours treatment, read-out: IC50, colorectal cancer cell line HCT-15.
Where [14] appears, read: Homo sapiens, HT-29 cells, 72 hours treatment, read-out: IC50, colorectal cancer cell line HT-29.
Where [15] appears, read: Homo sapiens, LoVo cells, 72 hours treatment, read-out: IC50, colorectal cancer cell line LoVo.
The mark [16] stands for this setting: Homo sapiens, RKO cells, 72 hours treatment, read-out: IC50, colorectal cancer cell line RKO.
Setting [17] is: Homo sapiens, SW480 cells, 72 hours treatment, read-out: IC50, colorectal cancer cell line SW480.
Where [18] appears, read: Homo sapiens, SW-620, SW620 cells, 72 hours treatment, read-out: IC50, colorectal cancer cell line SW620.

With `CC(=O)c1c([S+]([O-])Cc2ccc(SC(F)(F)F)cc2)[nH]c2c(Br)ccc(Cl)c2c1=O` (centres unmarked) [Compound 56, 3-acetyl-8-bromo-5-chloro-2-((4-((trifluoromethyl)thio)benzyl)sulfinyl)quinolin-4(1H)-one], the IC50 reads like this: under setting [1], 800 nM; under setting [2], 1190 nM; under setting [3], 1690 nM; under setting [4], 1320 nM; under setting [5], above 10000 nM; under setting [6], above 2000 nM. Moreover, the IC50 is above 2000 nM under setting [7], 1910 nM under setting [8] and 1530 nM under setting [9].

For the compound `CC(=O)c1c([S+]([O-])Cc2ccc(F)c(Cl)c2)[nH]c2c(Br)ccc(Cl)c2c1=O` (centres unmarked) [Compound 31, 3-acetyl-8-bromo-5-chloro-2-((3-chloro-4-fluorobenzyl)sulfinyl)quinolin-4(1H)-one], the IC50 runs as follows: under setting [1], 820 nM; under setting [2], 1180 nM; under setting [3], 1420 nM; under setting [4], 1250 nM; under setting [5], above 10000 nM; under setting [6], above 2000 nM. Besides, the IC50 by setting is: under setting [7], 1660 nM; under setting [8], 1350 nM; under setting [9], 1420 nM.

Turning to `CC(=O)c1c([S+]([O-])Cc2ccc(OC(F)(F)F)cc2)[nH]c2c(Br)ccc(Cl)c2c1=O` (centres unmarked) [Compound 71, 3-acetyl-8-bromo-5-chloro-2-((4-(trifluoromethoxy)benzyl)sulfinyl)quinolin-4(1H)-one], the IC50 reads like this: under setting [1], 1150 nM; under setting [2], 1730 nM; under setting [3], above 2000 nM; under setting [4], 1620 nM; under setting [5], above 10000 nM; under setting [6], above 2000 nM. Moreover, the IC50 by setting is: under setting [7], above 2000 nM; under setting [8], above 2000 nM; under setting [9], above 2000 nM.

Regarding `CC(=O)c1c([S+]([O-])Cc2ccc(C#N)cc2)[nH]c2c(Br)ccc(Cl)c2c1=O` (centres unmarked) [Compound 73, 4-(((3-acetyl-8-bromo-5-chloro-4-oxo-1,4-dihydroquinolin-2-yl)sulfinyl)methyl)benzonitrile], the IC50 by setting is: under setting [1], 1330 nM; under setting [2], 1860 nM; under setting [3], above 2000 nM; under setting [4], above 2000 nM; under setting [5], above 10000 nM; under setting [6], above 2000 nM. Moreover, the IC50 by setting is: under setting [7], above 2000 nM; under setting [8], above 2000 nM; under setting [9], above 2000 nM.

Take `CC(=O)c1c([S+]([O-])Cc2cc(F)cc(S(F)(F)(F)(F)F)c2)[nH]c2c(Br)ccc(Cl)c2c1=O` (centres unmarked) [Compound 76, 3-acetyl-8-bromo-5-chloro-2-((3-fluoro-5-(pentafluoro--sulfanyl)benzyl)sulfinyl)quinolin-4(1H)-one]: the IC50 under setting [1] came out at 1090 nM; the IC50 under setting [2] was 1570 nM; the IC50 under setting [3] is above 2000 nM; the IC50 under setting [4] is 1640 nM; the IC50 under setting [5] is above 10000 nM; the IC50 under setting [6] was above 2000 nM. Further, the IC50 is, setting by setting: under setting [7], above 2000 nM; under setting [8], above 2000 nM; under setting [9], 1520 nM.

On to `CC(=O)c1c([S+]([O-])Cc2c(F)cccc2Cl)[nH]c2c(Br)ccc(Cl)c2c1=O` (centres unmarked) [Compound 74, 3-acetyl-8-bromo-5-chloro-2-((2-chloro-6-fluorobenzyl)sulfinyl)quinolin-4(1H)-one], for which the IC50 under setting [1] amounted to 1020 nM; the IC50 under setting [2] was determined as 1610 nM; the IC50 under setting [3] turned out to be 2010 nM; the IC50 under setting [4] turned out to be 1530 nM; the IC50 under setting [5] is above 10000 nM; the IC50 under setting [6] was above 2000 nM. Further, the IC50 reads like this: under setting [7], above 2000 nM; under setting [8], 1770 nM; under setting [9], above 2000 nM.

For `CC(=O)c1c([S+]([O-])Cc2ccc([S+]([O-])C(F)(F)F)cc2)[nH]c2c(Br)ccc(Cl)c2c1=O` (centres unmarked) [Compound 64, 3-acetyl-8-bromo-5-chloro-2-((4-((trifluoromethyl)sulfinyl)benzyl)sulfinyl)quinolin-4(1H)-one], the concentration for half-maximal inhibition (IC50) was 1370 nM under setting [2]; 1630 nM under setting [3]; 1360 nM under setting [4]; above 10000 nM under setting [5]; above 2000 nM under setting [6]; above 2000 nM under setting [7]. For the same compound, the IC50 under setting [8] stood at 1650 nM and the IC50 under setting [9] is 1690 nM.

In the case of `COc1cc(C[S+]([O-])c2[nH]c3c(Br)ccc(Cl)c3c(=O)c2C(C)=O)cc(OC)c1` (centres unmarked) [Compound 59, 3-acetyl-8-bromo-5-chloro-2-((3,5-dimethoxybenzyl)sulfinyl)quinolin-4(1H)-one], the IC50 is, setting by setting: under setting [1], 890 nM; under setting [2], 1110 nM; under setting [3], 1500 nM; under setting [4], 1270 nM; under setting [5], above 10000 nM; under setting [6], above 2000 nM. Also, the IC50 by setting is: under setting [7], above 2000 nM; under setting [8], 1350 nM; under setting [9], 1560 nM.

Regarding `CC(=O)c1c([S+]([O-])Cc2cccc(F)c2)[nH]c2c(Br)ccc(Cl)c2c1=O` (centres unmarked) [Compound 50, 3-acetyl-8-bromo-5-chloro-2-((3-fluorobenzyl)sulfinyl)quinolin-4(1H)-one], the IC50 is 990 nM under setting [1]; 1390 nM under setting [2]; 1990 nM under setting [3]; 1590 nM under setting [4]; above 10000 nM under setting [5]; above 2000 nM under setting [6]. The IC50 reads like this: under setting [7], above 2000 nM; under setting [8], 1580 nM; under setting [9], 1770 nM.

On to `CC(=O)c1c([S+]([O-])Cc2cc(Cl)ccc2Cl)[nH]c2c(Br)ccc(Cl)c2c1=O` (centres unmarked) [Compound 44, 3-acetyl-8-bromo-5-chloro-2-((2,5-dichlorobenzyl)sulfinyl)quinolin-4(1H)-one], for which the IC50 is, setting by setting: under setting [1], 890 nM; under setting [2], 1200 nM; under setting [3], 1660 nM; under setting [4], 1480 nM; under setting [5], above 10000 nM; under setting [6], above 2000 nM. The IC50 was determined as 1340 nM under setting [7], 1450 nM under setting [8] and 1150 nM under setting [9].

Regarding `COc1cccc(C[S+]([O-])c2[nH]c3c(Br)ccc(Cl)c3c(=O)c2C(C)=O)c1` (centres unmarked) [Compound 55, 3-acetyl-8-bromo-5-chloro-2-((3-methoxybenzyl)sulfinyl)quinolin-4(1H)-one], the IC50 is, setting by setting: under setting [1], 1150 nM; under setting [2], 1810 nM; under setting [3], above 2000 nM; under setting [4], 1810 nM; under setting [5], above 10000 nM; under setting [6], above 2000 nM. Also, the IC50 was above 2000 nM under setting [7], 1910 nM under setting [8] and above 2000 nM under setting [9].

For `CC(=O)c1c([S+]([O-])Cc2cc(C)on2)[nH]c2c(Br)ccc(Cl)c2c1=O` (centres unmarked) [Compound 51, 3-acetyl-8-bromo-5-chloro-2-(((5-methylisoxazol-3-yl)methyl)sulfinyl)quinolin-4(1H)-one], the IC50 is 660 nM under setting [1]; 840 nM under setting [2]; 1210 nM under setting [3]; 1010 nM under setting [4]; above 10000 nM under setting [5]; 1640 nM under setting [6]. Besides, the IC50 reads like this: under setting [7], 950 nM; under setting [8], 1000 nM; under setting [9], 1100 nM.

`CC(=O)c1c([S+]([O-])Cc2ccc(F)cc2F)[nH]c2c(Br)ccc(Cl)c2c1=O` (centres unmarked) [Compound 29, 3-acetyl-8-bromo-5-chloro-2-((2,4-difluorobenzyl)sulfinyl)quinolin-4(1H)-one]: the IC50 is 870 nM under setting [1]; 1210 nM under setting [2]; 1710 nM under setting [3]; 1400 nM under setting [4]; above 10000 nM under setting [5]; above 2000 nM under setting [6]. For the same compound, the IC50 is, setting by setting: under setting [7], above 2000 nM; under setting [8], 1380 nM; under setting [9], 1570 nM.

As to `CC(=O)c1c([S+]([O-])Cc2ccc(C(F)(F)F)cc2)[nH]c2c(Br)ccc(Cl)c2c1=O` (centres unmarked) [Compound 70, 3-acetyl-8-bromo-5-chloro-2-((4-(trifluoromethyl)benzyl)sulfinyl)quinolin-4(1H)-one], the IC50 was 920 nM under setting [1]; 1320 nM under setting [2]; 1540 nM under setting [3]; 1190 nM under setting [4]; above 10000 nM under setting [5]; above 2000 nM under setting [6]. In addition, the IC50 was above 2000 nM under setting [7], 1710 nM under setting [8] and 1630 nM under setting [9].

On to `CC(=O)c1c([S+]([O-])Cc2ccc(I)cc2)[nH]c2c(Cl)ccc(Cl)c2c1=O` (centres unmarked) [Compound 83, 3-acetyl-5,8-dichloro-2-((4-iodobenzyl)sulfinyl)quinolin-4(1H)-one], for which the IC50 by setting is: under setting [10], 1380 nM; under setting [11], 1800 nM; under setting [12], 1880 nM; under setting [13], 1620 nM; under setting [14], above 10000 nM; under setting [15], above 2000 nM. Besides, the IC50 by setting is: under setting [16], 1030 nM; under setting [17], above 2000 nM; under setting [18], above 2000 nM.

Take `CC(=O)c1c([S+]([O-])Cc2cccnc2)[nH]c2c(Br)ccc(Cl)c2c1=O` (centres unmarked) [Compound 84, 3-acetyl-8-bromo-5-chloro-2-((pyridin-3-ylmethyl)sulfinyl)quinolin-4(1H)-one]: the IC50 is 930 nM under setting [10]; 1160 nM under setting [11]; 1300 nM under setting [12]; 1510 nM under setting [13]; above 10000 nM under setting [14]; 1960 nM under setting [15]. For the same compound, the IC50 turned out to be 1270 nM under setting [16], 1550 nM under setting [17] and 1230 nM under setting [18].

With `Cc1cc(C[S+]([O-])c2[nH]c3c(Br)ccc(Cl)c3c(=O)c2C(=O)C(C)C)no1` (centres unmarked) [Compound 95, 8-bromo-5-chloro-3-isobutyryl-2-(((5-methylisoxazol-3-yl)methyl)sulfinyl)quinolin-4(1H)-one], the IC50 under setting [10] turned out to be 1130 nM; the IC50 under setting [11] is 760 nM; the IC50 under setting [12] stood at 810 nM; the IC50 under setting [13] worked out at 1060 nM; the IC50 under setting [14] was above 10000 nM; the IC50 under setting [15] was 910 nM. In addition, the IC50 by setting is: under setting [16], 920 nM; under setting [17], 1190 nM; under setting [18], 640 nM.
